From ChEMBL document CHEMBL1129026, “Rapid microscale synthesis, a new method for lead optimization using robotics and solution phase chemistry: application to the synthesis and optimization of corticotropin-releasing factor1 receptor antagonists” (J Med Chem, 1996) come the findings set out here.

The target in the assay is T1, Corticotropin-releasing factor receptor 1 (Homo sapiens, UniProt P34998).
T1 sequence (P34998 whole entry): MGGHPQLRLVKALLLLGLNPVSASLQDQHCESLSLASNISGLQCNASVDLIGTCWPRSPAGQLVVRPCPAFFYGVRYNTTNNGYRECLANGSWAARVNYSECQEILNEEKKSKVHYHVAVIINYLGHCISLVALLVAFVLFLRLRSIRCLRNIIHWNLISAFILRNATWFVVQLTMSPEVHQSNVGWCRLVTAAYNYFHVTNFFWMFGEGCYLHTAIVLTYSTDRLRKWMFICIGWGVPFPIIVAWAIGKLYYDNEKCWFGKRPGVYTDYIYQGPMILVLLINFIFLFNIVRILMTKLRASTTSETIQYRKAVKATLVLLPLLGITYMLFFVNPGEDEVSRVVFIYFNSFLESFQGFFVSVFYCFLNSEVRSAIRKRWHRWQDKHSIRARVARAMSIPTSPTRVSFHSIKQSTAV
Description: Inhibition of [125I]CRF binding to human corticotropin releasing factor receptor 1.

One may read the Ki as a dissociation constant, usually derived from enzyme kinetics or from competition with a known ligand. Low values mean tighter binding, high ones weaker binding. Consider `CCCN(Cc1ccccc1)c1nc(C)nc(Nc2c(C)cccc2C)n1`, for which the Ki is more than 10 µM. The value for `CCN(Cc1ccccc1)c1nc(C)nc(Nc2ccc(C)cc2)n1` was more than 10 µM; that for `C=CCN(CC=C)c1nc(C)nc(Nc2ccc(C)cc2)n1` was more than 10 µM; that for `C=CCN(CC=C)c1nc(C)nc(Nc2c(C)cc(C)cc2C)n1` was 0.115 µM. For `Cc1nc(NCc2ccc(C(F)(F)F)cc2)nc(Nc2c(C)cccc2C)n1`, the Ki was more than 10 µM. `CCCN(CC1CC1)c1nc(C)nc(Nc2c(CC)cccc2CC)n1`: the inhibition constant Ki is more than 10 µM.

On to `CCCN(CCC)c1nc(C)nc(Nc2c(C)cc(C)cc2C)n1`, for which the Ki is 0.13 µM. With `CCCCN(CCCC)c1nc(C)nc(Nc2c(C)cc(C)cc2C)n1` the figure was 0.49 µM.

For the molecule `CCc1cccc(CC)c1Nc1nc(C)nc(NCc2ccc(C(F)(F)F)cc2)n1`, the Ki amounted to 55 µM. Molecule `CCCN(CC1CC1)c1nc(C)nc(Nc2ccc(OC)cc2OC)n1` showed a Ki of 8 µM.

The molecule `CCCN(Cc1ccccc1)c1nc(C)nc(Nc2c(C)cc(C)cc2C)n1` yielded an inhibitory constant (Ki) of 0.49 µM. With `C=CCN(CC=C)c1nc(C)nc(Nc2c(C)cccc2C)n1` the figure was more than 10 µM; with `CCCN(CC1CC1)c1nc(C)nc(Nc2ccc(C)cc2)n1`, more than 10 µM. With `CCN(Cc1ccccc1)c1nc(C)nc(Nc2c(C)cc(C)cc2C)n1` the figure was 1.47 µM; with `Cc1ccc(Nc2nc(C)nc(NCc3ccc(C(F)(F)F)cc3)n2)cc1`, more than 10 µM; with `CCN(Cc1ccccc1)c1nc(C)nc(Nc2c(C)cccc2C)n1`, more than 10 µM. The value for `CCCN(Cc1ccccc1)c1nc(C)nc(Nc2ccc(C)cc2)n1` was more than 10 µM. As for `CCc1cccc(CC)c1Nc1nc(C)nc(N(CC)Cc2ccccc2)n1`, the Ki was 1.7 µM.

Molecule `CCCN(Cc1ccccc1)c1nc(C)nc(Nc2c(CC)cccc2CC)n1` showed an inhibition constant Ki of more than 10 µM. Molecule `CCCCN(Cc1ccccc1)c1nc(C)nc(Nc2c(C)cc(C)cc2C)n1` yielded an inhibition constant (Ki) of 1.05 µM. The value for `CCCN(CC1CC1)c1nc(C)nc(Nc2ccc(C)cc2C)n1` was more than 10 µM; that for `CCCN(CC1CC1)c1nc(CC)nc(Nc2c(C)cc(C)cc2C)n1` was more than 10 µM. With `CCCN(CC1CC1)c1nc(C)nc(Nc2c(C)cccc2C)n1` the figure was more than 10 µM.
